Measured values as given in paper PMC12316308, “Interactions of substrates and phosphinyl containing inhibitors with bacterial and human zinc proteases” (PLOS One, 2025).
Values joined by “and” are separate entries in the source; they are usually repeats but may differ in a detail not shown here. Equal values may be shown once.

Assays:
MMP-12 = tested on: MMP-12; design: method as in PMID 27996256, PMID 23343195; settings: cited from earlier work
[1] = target: T1, human MT1-MMP/MMP-14 (catalytic domain) (Homo sapiens, UniProt P50281); experiment: Enzyme inhibition kinetics, fluorogenic substrate ES001; assay type: biochemical; settings: inhibitor 10 μM
T1 construct: human MT1-MMP/MMP-14 (catalytic domain); purchased Calbiochem (San Diego, CA, USA)

Row | Structure (SMILES) | pH dependence of Ki (MMP-12) | vi/v0 (relative enzyme activity with inhibitor), single determinations ([1]; preincubation 15 min) | vi/v0 (relative enzyme activity with inhibitor), single determinations ([1]; preincubation 30 min)
1 | NC(=O)C(CCC(=O)O)NC(=O)C(CCC(=O)O)NC(=O)C(Cc1cc(-c2ccc(-c3cccc(Cl)c3)cc2)no1)CP(=O)(O)c1ccc(Br)cc1 (stereo not drawn) [H-1] | increasing approximately ten times for each unit increase in buffer pH | – | –
2 | NC(=O)C(Cc1c[nH]c2ccccc12)NC(=O)C(CCCc1ccccc1)CP(=O)(O)C(Cc1ccccc1)NC(=O)OCc1ccccc1 (stereo not drawn) [H-2] | – | 0.1646 and 0.1715 and 0.1368 and 0.1654 | 0.1465 and 0.1449 and 0.1477 and 0.1505
